{
  "source": "patent US20250326756A1",
  "about": "“METHOD FOR PRODUCING 3,6-DISUBSTITUTED-IMIDAZO[1,2-B]PYRIDAZINE COMPOUNDS” (NUVATION BIO INC., priority 2022, published 2025)",
  "assay": "Particle size distribution of monoadipate salt particles",
  "assay_type": "physicochemical",
  "details": "particles without milling or after wet milling",
  "description": "The crude product was purified and milled as follows: After 4.02 Kg/Kg of anhydrous ethanol and 2.2 Kg/Kg of purified water were added into a reactor and stirred, the crude product obtained above was added to the mixture. The reaction mixture was heated to 65-70° C. and stirred until a clear solution was obtained. The recommended stirring time and rotation speed were 0.5-1 hour and 60-100 rpm, respectively. The reaction mixture was then cooled to 50-55° C. (target temperature: 53° C.) with a recommended cooling rate of 5-10° C./h. After 0.01 Kg/Kg of seed crystals of the compound of formula (5) adipate salt were added to the mixture at 50˜55° C., the mixture was stirred for 1˜3 hours (target: 2 hours) at this temperature. The reaction mixture was cooled down to 20-30° C. (target temperature: 25° C.) with recommended cooling rate of 5-10° C./h. After 8.4 Kg/Kg of purified water was slowly added to the mixture at 20-30° C. in 1-3 hours (target: 2 hours), the mixture was stirred for 1˜3 hours (target: 2 hours) at this temperature. The mixture was cooled to −5 to 5° C. (target temperature: 0° C.) at a cooling rate of 5 to 10° C./h, and stirred at this temperature for 4 to 8 hours (target: 6 hours). While maintaining the temperature at −5 to 5° C. (target temperature: 0° C.), the reaction mixture was passed through a wet mill (Blade no. 2, 6, and 6; rotation speed: 6,000-10,000 rpm, target: 8,000 rpm). Samples were taken every 20-30 minutes to measure the particle size of the solids after wet milling until D50 was no more than 45 μm (target: 35-45 μm). The reaction mixture was filtered through a filter with filter dryer sheath pre-cooled to T=−5˜5° C. The filter cake was washed with a mixture of 1.1 Kg/Kg of purified water and 0.39 Kg/Kg of anhydrous ethanol, which was pre-cooled to −5˜5° C. and maintain for at least 0.5 hour. The solid thus obtained was dried at 50˜60° C. in an oven under a controlled temperature of no more than 70° C. for 12 hours. Samples were taken every 4˜8 hours to track the residual ethanol and make sure the content of residual ethanol was no more than 0.4%. […]",
  "data": [
    {"substance": "3-(4-((R)-2-aminopropoxy)phenyl)-N—((R)-1-(3-fluorophenyl)ethyl)imidazo[1,2-b]pyridazin-6-amine adipate salt [compound of formula (5) adipate salt]", "values": [
      {"measurement": "Particle size D10", "result": 7.2, "unit": "μm"},
      {"measurement": "Particle size D50", "result": 44, "unit": "μm"},
      {"measurement": "Particle size D90", "result": 107, "unit": "μm"}
    ]}
  ]
}
